Experiment: Determination of lanthanide (holmium, gadolinium) content of microspheres by complexometric titration and ICP-OES
Type: physicochemical
Conditions: Table 1, measured composition
Description: The holmium content of the microspheres was determined using the complexometric titration for aluminium that has been described in the European Pharmacopoeia. In short, approximately 50 mg of the dried microspheres is accurately weighed, and dissolved in 1 N NaOH. To this solution 1 N HCl is added and the solution is diluted to 50 ml, 5 grams hexamethylentetramine is added and the pH is adjusted to 5, using 1 N HCl. Approximately 50 mg of xylenol orange is added as an indicator, and the solution is then titrated with 0.01 M EDTA, until the colour changes from purple to yellow. Analyses were performed in triplicate.
The holmium content was measured by inductively coupled plasma optical emission spectrometry (IPC-OES). The microspheres are weighed and destructed at 100° C. with 5 ml 1 N NaOH, which was evaporated to dryness. 15 ml of 2% Nitric acid was added followed by a 1 in 50 dilution. Samples were introduced in an Optima 4300 CV (PerkinElmer; Norwalk, USA) and […] was measured at three different wavelengths (345.600, 339.898 and 347.426 nm) to accurately determine the holmium content.
The gadolinium content of the GdAcAc microspheres was determined in the same way as described in Example 1.

Question: With “holmium acetylacetonate [HoAcAc crystals]” as the substance, how does the “Ho, measured elemental composition” value read?
Answer: Its value is 31.2 % w/w.
